The results in this text go back to ChEMBL document CHEMBL1201862, “PubChem BioAssay data set” (2004).

The target of test [1] is T1, Endoribonuclease toxin MazF (Escherichia coli K-12, UniProt P0AE70).
T1 sequence (P0AE70 whole entry): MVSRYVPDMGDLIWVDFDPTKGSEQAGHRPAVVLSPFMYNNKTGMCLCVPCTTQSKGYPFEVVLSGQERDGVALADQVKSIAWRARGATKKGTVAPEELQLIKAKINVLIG
Kind of test: SAR analysis of small molecule activators of the MazEF TA System via a fluorescence-based single-stranded RNase assay counterscreen. [Related pubchem assays (depositor defined):AID504720, AID504743]. Format: functional.

Test [2] concerns the target T1, Endoribonuclease toxin MazF. Kind of test: fluorescent RNA oligo signal without MazF, dose response, counter-screen for MazEF activator project, biochemical, fluorescence, single-stranded RNase substrate (AID 588502). Format: functional. For orientation: Counterscreens check selectivity or assay interference.
Test [3] relates to MEF. Nature of the test: SAR analysis of small molecule cytotoxicity of MazEF TA System activators in embryonic fibroblast (MEF) cells. [Related pubchem assays (depositor defined):AID504720, AID504743]. Conditions: Mus musculus. It counts as functional.
Test [4] concerns the target T2, Neuropeptide Y receptor type 1 (Homo sapiens, UniProt P25929).
T2 sequence (P25929 whole entry): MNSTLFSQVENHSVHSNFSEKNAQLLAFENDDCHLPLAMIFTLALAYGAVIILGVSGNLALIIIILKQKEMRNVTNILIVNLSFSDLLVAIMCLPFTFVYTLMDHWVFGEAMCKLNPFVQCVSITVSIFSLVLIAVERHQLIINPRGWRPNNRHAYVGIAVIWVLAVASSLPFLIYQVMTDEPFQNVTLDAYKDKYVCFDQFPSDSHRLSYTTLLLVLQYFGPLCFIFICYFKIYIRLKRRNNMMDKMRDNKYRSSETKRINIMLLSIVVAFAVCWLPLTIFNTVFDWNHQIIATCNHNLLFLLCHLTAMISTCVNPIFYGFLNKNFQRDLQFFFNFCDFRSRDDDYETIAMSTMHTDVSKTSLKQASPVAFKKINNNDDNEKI
Kind of test: Fluorescence-based dose response cell-based high-throughput screening assay for agonists of NPY-Y1. [Related pubchem assays: 1697 (Screening assay (NPY-Y1 agonists).), 1359 (Screening assay (NPY-Y2 potentiators or agonists).), 1304 (Screening assay (NPY-Y1 potentiators or agonists).), 1704 (Screening assay (CNGC inhibitors).), 1791 (Summary AID.)]. It counts as functional.

Test [5] concerns the target T3, Neuropeptide Y receptor type 2 (Homo sapiens, UniProt P49146).
T3 sequence (P49146 whole entry): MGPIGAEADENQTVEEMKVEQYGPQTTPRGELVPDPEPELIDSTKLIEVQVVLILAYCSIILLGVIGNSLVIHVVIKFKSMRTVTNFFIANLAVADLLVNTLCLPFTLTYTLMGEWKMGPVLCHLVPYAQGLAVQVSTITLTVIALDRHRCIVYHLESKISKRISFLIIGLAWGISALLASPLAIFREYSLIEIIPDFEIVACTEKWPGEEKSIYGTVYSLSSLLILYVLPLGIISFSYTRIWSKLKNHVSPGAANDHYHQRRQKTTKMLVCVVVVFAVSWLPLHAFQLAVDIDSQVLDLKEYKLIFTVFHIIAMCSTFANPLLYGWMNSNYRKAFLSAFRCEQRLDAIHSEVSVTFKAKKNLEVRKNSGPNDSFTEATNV
Nature of the test: Fluorescence-based counterscreen for agonists of NPY-Y1: cell-based high-throughput dose response assay for agonists of NPY-Y2. Format: functional.

The target in test [6] is T1, Endoribonuclease toxin MazF. Kind of test: MazF endoribonuclease activators, SAR follow-up, biochemical, fluorescence, single-stranded RNA substrate (AID 588603). Format: functional.
The test system of test [7] is HEK293. Nature of the test: Fluorescence-based counterscreen for potentiators or agonists of NPY-Y1: cell-based high-throughput dose response assay for inhibitors of cyclic nucleotide gated ion channel (CNGC) activity. In this assay, the parental HEK293 cell line transfected with a cyclic-nucleotide gated ion channel (CNGC)-based cAMP sensor is used to measure inhibition of isoproterenol-induced CNGC …. Format: functional. As to conditions: Homo sapiens.

Test [8] has as its target T1, Endoribonuclease toxin MazF. Nature of the test: MazF toxin RNase activators, dose response, biochemical, fluorescence, single-stranded RNA substrate, uHTS hits (AID 588481). It counts as functional.
Test [9] concerns the target T4, Histone-lysine N-methyltransferase NSD2 (Homo sapiens, UniProt O96028).
T4 sequence (O96028 whole entry): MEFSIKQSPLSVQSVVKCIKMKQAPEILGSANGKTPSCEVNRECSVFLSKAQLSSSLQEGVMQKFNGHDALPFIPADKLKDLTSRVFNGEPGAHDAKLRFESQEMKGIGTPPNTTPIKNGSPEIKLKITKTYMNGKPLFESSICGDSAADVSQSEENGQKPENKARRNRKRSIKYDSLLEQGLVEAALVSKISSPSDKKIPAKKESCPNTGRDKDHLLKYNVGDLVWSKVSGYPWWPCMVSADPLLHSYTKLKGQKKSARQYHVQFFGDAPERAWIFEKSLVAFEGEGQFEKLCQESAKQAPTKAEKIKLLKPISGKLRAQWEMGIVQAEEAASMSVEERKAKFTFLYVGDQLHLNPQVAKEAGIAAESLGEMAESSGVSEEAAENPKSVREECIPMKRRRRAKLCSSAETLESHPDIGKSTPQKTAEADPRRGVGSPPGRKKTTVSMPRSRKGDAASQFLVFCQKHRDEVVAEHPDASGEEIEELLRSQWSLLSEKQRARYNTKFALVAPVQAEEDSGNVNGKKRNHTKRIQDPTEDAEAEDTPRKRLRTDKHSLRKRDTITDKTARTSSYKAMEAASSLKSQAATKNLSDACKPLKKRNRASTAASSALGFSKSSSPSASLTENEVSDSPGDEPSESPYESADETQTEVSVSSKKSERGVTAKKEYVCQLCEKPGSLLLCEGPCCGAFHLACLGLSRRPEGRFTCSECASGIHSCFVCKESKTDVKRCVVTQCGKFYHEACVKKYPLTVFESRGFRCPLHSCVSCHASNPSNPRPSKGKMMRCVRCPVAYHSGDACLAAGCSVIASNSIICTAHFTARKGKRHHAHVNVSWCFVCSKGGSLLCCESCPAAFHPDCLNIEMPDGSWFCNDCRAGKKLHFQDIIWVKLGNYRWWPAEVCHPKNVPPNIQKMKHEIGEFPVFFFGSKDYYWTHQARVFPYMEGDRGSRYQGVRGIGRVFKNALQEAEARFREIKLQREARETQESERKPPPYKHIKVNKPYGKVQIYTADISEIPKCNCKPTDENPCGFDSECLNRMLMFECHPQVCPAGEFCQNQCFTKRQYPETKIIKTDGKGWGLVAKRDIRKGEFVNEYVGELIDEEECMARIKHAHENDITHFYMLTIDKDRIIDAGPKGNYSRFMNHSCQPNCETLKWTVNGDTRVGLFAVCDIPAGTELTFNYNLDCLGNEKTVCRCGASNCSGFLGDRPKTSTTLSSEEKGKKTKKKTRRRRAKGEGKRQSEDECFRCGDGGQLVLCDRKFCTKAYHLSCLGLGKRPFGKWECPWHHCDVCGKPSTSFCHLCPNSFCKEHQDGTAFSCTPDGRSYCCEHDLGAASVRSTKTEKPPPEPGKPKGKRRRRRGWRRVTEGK
Format: biochemical.

In test [10] the target is T5, Rac GTPase-activating protein 1 (Homo sapiens, UniProt Q9H0H5).
T5 sequence (Q9H0H5 whole entry): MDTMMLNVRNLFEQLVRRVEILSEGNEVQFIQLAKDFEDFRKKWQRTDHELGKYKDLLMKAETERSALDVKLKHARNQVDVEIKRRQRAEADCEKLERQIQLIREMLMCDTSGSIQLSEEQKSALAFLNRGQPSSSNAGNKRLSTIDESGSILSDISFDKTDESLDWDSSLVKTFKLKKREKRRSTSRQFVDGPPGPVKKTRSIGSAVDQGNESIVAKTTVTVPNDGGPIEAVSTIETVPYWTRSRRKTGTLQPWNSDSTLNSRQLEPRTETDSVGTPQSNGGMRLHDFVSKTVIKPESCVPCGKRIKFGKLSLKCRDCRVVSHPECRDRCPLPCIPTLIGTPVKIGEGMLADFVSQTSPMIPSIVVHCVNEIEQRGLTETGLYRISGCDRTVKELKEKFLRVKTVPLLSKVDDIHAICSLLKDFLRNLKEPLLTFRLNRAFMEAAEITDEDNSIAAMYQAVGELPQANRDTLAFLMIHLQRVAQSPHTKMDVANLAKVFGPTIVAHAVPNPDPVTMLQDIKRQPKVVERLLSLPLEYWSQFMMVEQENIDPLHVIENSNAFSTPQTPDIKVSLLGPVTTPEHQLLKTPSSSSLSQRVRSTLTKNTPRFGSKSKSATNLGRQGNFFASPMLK
Kind of test: MgcRacGAP GTPase-activating activity inhibitors, confirmation, biochemical, ADP Hunter fluorescence, primary and confirmatory (AID 624330). Format: functional.

In test [11] the target is Nonstructural protein 1 (Influenza A virus, UniProt Q194T2). Format: functional, Influenza A virus (A/California/07/2009(H1N1)).
Chain of Nonstructural protein 1 (Q194T2 whole entry): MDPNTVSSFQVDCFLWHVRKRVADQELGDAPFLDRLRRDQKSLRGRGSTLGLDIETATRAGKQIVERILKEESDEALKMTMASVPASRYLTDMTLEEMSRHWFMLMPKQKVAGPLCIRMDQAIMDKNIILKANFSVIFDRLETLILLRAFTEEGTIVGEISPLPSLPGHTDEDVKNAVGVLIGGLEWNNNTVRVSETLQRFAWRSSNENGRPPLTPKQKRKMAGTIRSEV
Test [12] can be described thus: HeLa cell cytotoxicity, dose response, cytotoxicity control for MgcRacGAP inhibitor project (AID 624300). It counts as functional.
Test [13] addresses DNA topoisomerase (Yersinia pestis, UniProt A0A2S9PM60). Kind of test: Y. pestis Topo-I inhibitors, cleavage product readout, dose response, biochemical, cherry-pick (AID 588525).

Active and inactive are the calls of the source.

Chain of DNA topoisomerase (A0A2S9PM60 whole entry): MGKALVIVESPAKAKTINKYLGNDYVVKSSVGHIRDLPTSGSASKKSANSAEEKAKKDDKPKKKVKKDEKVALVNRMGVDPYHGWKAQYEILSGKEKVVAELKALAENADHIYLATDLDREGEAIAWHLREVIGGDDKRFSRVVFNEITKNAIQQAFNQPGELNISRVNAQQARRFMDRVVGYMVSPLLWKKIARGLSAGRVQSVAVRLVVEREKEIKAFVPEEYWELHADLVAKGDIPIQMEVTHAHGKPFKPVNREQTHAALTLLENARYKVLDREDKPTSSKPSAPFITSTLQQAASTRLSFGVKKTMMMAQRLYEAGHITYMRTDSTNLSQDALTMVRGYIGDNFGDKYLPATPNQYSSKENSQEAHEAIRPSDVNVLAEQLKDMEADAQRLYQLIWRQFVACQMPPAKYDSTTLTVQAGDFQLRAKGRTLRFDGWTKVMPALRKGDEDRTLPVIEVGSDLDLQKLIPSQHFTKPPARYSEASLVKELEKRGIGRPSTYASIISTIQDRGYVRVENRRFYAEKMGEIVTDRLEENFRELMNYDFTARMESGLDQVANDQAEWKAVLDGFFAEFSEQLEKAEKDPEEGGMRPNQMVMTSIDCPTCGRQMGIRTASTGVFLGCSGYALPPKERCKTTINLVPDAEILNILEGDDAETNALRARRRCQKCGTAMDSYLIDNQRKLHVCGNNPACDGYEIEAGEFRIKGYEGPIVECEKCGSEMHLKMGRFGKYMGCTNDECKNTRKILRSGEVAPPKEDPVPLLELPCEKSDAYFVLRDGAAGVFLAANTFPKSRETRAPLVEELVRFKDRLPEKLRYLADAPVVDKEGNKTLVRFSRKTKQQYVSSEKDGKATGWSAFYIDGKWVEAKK

As usually defined, the EC50 is the concentration at which the effect is half-maximal. What is called CC50 is the concentration that lowers cell viability or growth by half. For orientation: IC50 means the point on the concentration scale where inhibition reaches its midpoint. `O=C(Nc1ccc(Cl)cc1Cl)NC1CCN(S(=O)(=O)c2ccc(F)cc2)CC1`: the EC50 in test [1] was > 99 µM (inactive); in [2] it was > 99 µM (inactive); in [4], 7.41 µM (active); in test [5], 6.58 µM (active); in test [6], 26.9 µM (inactive); in [8], 7.09 µM (active). The CC50 in test [3] is 11.8 µM (active). Further, the IC50 in test [7] is 4.36 µM (active).

By AC50 is commonly meant the concentration at which the activity in the assay is half-maximal. On to `COc1cccc2c1C(=N)c1c(O)c3c(c(O)c1C2=O)C[C@@](O)(C(C)=O)C[C@@H]3O[C@H]1C[C@H](N)[C@H](O)[C@H](C)O1`, for which the AC50 in test [9] was 11.5 µM (active); in [13], 4.44 µM (active). The IC50 is 50.8 µM (active) in test [10] and 11.2 µM (active) in test [11]. Also, the CC50 in test [12] is 35.4 µM (active).
